One experiment relates to Helicobacter pylori. The experiment is described as follows: Synergetic effect of levofloxacin and clarithromycin by contactless conductivity (ΔC) monitoring of bacterial growth. Type of experiment: cell-based. The conditions noted are these: indicates growth.
Another experiment deals with Dysentery Bacillus. The experiment is described as follows: AST assay of levofloxacin by contactless conductivity (ΔC) monitoring of bacterial growth. Type of experiment: cell-based, Dysentery Bacillus (Enterobacteriaceae strain). Here is the method:
f. Judging the bacterial cells proliferation result based on the ΔCs at the final point. The ΔC is equal to or larger than 10.0 μS/cm, indicating a proliferation; and ΔC is equal to or lower than 1.0 μS/cm, indicating a completely inhibition. The MIC is defined as the lowest concentration of antibiotic resulting in complete inhibition of growth.
Step 1: According to FIG. 1, an automated device with eight test channels is set up. An HtPot50 dry incubator, which is produced by ABSON Scientific Instruments Co. (Hefei, China), is used as a temperature control unit. The used 0.22 μm disposable syringe filter is produced by Zhejiang Aijiren INC (Quzhou, China). The actuator electrode A, pick-up electrode L and pick-up electrode S are all copper cylinders in external diameter of 4.00 mm with 0.95 mm wall thickness. Their lengths are 16 mm, 16 mm and 10 mm, respectively. In every test channel the three electrodes are coaxially fixed with fixing plate. The distance between the pick-up electrode L and pick-up electrode S is 5 mm; and the distance between the pick-up electrode S and the actuator electrode A is 10 mm. All of the electrodes of the eight test channels are linked to an ER815 capacitively coupled contactless conductivity detector (eDAQ Ltd, Australia). The capacitively coupled contactless conductivity detector is controlled with TERA TERM software installed in E470c laptop computer (Legend Holdings Corporation, China).
Step 2: The temperature in the constant temperature chamber (6) is set to be 36° C. with a nonidentity ≤0.5° C. by clicking the button of temperature control.
Step 3: Involved hardware, containers, tools, consumables and special liquid medium for Enterobacteriaceae are sterilized with high temperature steam (121° C.), following by cooling down to room temperature in sterile vessels. In the special liquid medium the concentrations of beef powder, proteose peptone, lactose, No. 3 bile salt, sodium citrate, sodium thiosulfate and ferric citrate are 5.0, 5.0, 10.0, 8.5, 8.5, 8.5 and 1.0 g/L, respectively. […]

A word on the MIC: it is the lowest concentration that inhibits growth of the organism.

Molecules are shown by their SMILES. ≈ marks a conversion by molar mass, not a printed value. Where only a bound is given, the exact number is not on record here.

Description for Helicobacter pylori: Step 3: Involved hardware, containers, tools, consumables and special liquid medium for Helicobacter pylori are sterilized with high temperature steam (121° C.), following by cooling down to room temperature in sterile vessels. The special liquid medium is purchased from Qingdao Hope Bio-Technology Co., Ltd (Qingdao, China).
Step 4: Levofloxacin solutions at concentrations of 0.2, 0.4, 0.6 and 0.8 g/l are prepared with ultrapure sterile water. Clarithromycin solutions at concentrations of 0.2, 0.4, 0.6 and 0.8 g/l are prepared with ethyl alcohol.
Step 5: Eight milliliter sterilized special liquid medium for Helicobacter pylori is transferred into a 10 ml centrifuge tube with a pipette.
Step 6: Twelve well-definite bacterial colonies are transferred from inoculating dish, on which Helicobacter pylori is cultured for 18-20 h, into the 10 ml centrifuge tube to prepare bacterial suspension.
Step 7: One-end-closed disposable PVC tubes in length of 12 cm are used as test tubes (5). […]

With `CC[C@H]1OC(=O)[C@H](C)[C@@H](O[C@H]2C[C@@](C)(OC)[C@@H](O)[C@H](C)O2)[C@H](C)[C@@H](O[C@@H]2O[C@H](C)C[C@H](N(C)C)[C@H]2O)[C@](C)(OC)C[C@@H](C)C(=O)[C@H](C)[C@@H](O)[C@]1(C)O` [clarithromycin], in the experiment with Helicobacter pylori (clarithromycin alone 0.10, 0.20, 0.30 and 0.40 mg/l (tubes No. 1-4, Step 12)), the “ΔC at the end of incubation” value was not below 14.0 μS/cm.
`C[C@H]1COc2c(N3CCN(C)CC3)c(F)cc3c(=O)c(C(=O)O)cn1c23` [levofloxacin]: the MIC in the experiment with Dysentery Bacillus (Bacillus, lowest concentration with complete inhibition of growth (ΔC not more than 1.0 μS/cm), 36° C., 21600 s) is 2 µg/mL (≈ 5.53 µM). The “ΔC at the end of incubation” value in the experiment on Dysentery Bacillus (levofloxacin 0.25, 0.50 and 1.00 mg/l (tubes No. 1-3), indicates growth) was not below 18.0 μS/cm; with Dysentery Bacillus (levofloxacin 2.00, 3.00, 4.00, 5.00 and 6.00 mg/l (tubes No. 4-8), growth completely inhibited) it was “not more than 1.0 μS/cm”; with Helicobacter pylori (levofloxacin alone 0.10, 0.20, 0.30 and 0.40 mg/l (tubes No. 1-4)), not below 22.0 μS/cm.

The record behind these values is patent US11518973B2, “Device and method for automated antibiotic susceptibility testing of gram-negative bacteria” (Yellow Sea Fisheries Research Institute Chinese Academy Of …, priority 2018, dated 2022).
